Patent US10752624B2, “Kinase inhibitors” (Origenis GmbH, priority 2012, dated 2020)

Each compound was assayed against LRRK2 (Homo sapiens, UniProt Q5S007) (assay: LRRK2-LRRK2 G2019S-Assay (LanthaScreen Eu Kinase Binding Assay)). Conditions: 5 nM LRRK2, 10 nM tracer 236, 2 nM EU-Anti-GST antibody, 1 h at RT; read-out: LRRK2 Activities: IC50.
Protocol: In the assay LanthaScreen™ Eu Kinase Binding Assay by Invitrogen Corporation (Carlsbad) the effect of invention of a compound on the phosphorylation is determined by measurement of fluorescence intensity emission ratio based on the binding and displacement of a proprietary, Alexa Fluor® 647-labeled, ATP-competitive kinase inhibitor scaffold (kinase tracer) to the kinase of interest. Binding of the tracer to the kinase is detected using a europium-labeled anti-tag antibody, which binds to the kinase of interest. Simultaneous binding of both the tracer and antibody to the kinase results in a high degree of FRET (fluorescence resonance energy transfer) from the europium (Eu) donor fluorophore to the Alexa Fluor® 647 acceptor fluorophore on the kinase tracer. Binding of an inhibitor to the kinase competes for binding with the tracer, resulting in a loss of FRET. The fluorescence intensity ratio is directly proportional to the amount of peptide phosphorylation.
To the wells of an 384 well small volume plate (Greiner, Frickenhausen) are added (i) the compound under test in 5% DMSO/distilled water (5 μl), (ii) 5 μl of the kinase antibody mixture resulting in a final concentration 5 nM LRRK2 or their mutants, 2 nM EU-Anti-GST antibody in 1× kinase buffer A. The reaction was started with addition of (iii) 5 μl resulting in a final concentration of 10 nM tracer 236. The assay plate was incubated at RT for 1 h and fluorescence intensity readings were collected using a TECAN M1000 at two wavelengths of λex 340/λem 615 nm and λex 340/λem 665 nm with a delay time of 100 μs and an integration time of 200 μs after 60 minutes. The emission ratio was calculated by division of the acceptor/tracer emission ([…]) by the antibody/donor emission ([…]). The inhibitor concentration was plotted versus the emission ratio to determine the IC50 using XLFit 5.0 (IDBS, Guildford) to fit to a sigmoidal dose response curve with a variable slope.

Sequence of LRRK2 (Q5S007 970-2527 limits assumed): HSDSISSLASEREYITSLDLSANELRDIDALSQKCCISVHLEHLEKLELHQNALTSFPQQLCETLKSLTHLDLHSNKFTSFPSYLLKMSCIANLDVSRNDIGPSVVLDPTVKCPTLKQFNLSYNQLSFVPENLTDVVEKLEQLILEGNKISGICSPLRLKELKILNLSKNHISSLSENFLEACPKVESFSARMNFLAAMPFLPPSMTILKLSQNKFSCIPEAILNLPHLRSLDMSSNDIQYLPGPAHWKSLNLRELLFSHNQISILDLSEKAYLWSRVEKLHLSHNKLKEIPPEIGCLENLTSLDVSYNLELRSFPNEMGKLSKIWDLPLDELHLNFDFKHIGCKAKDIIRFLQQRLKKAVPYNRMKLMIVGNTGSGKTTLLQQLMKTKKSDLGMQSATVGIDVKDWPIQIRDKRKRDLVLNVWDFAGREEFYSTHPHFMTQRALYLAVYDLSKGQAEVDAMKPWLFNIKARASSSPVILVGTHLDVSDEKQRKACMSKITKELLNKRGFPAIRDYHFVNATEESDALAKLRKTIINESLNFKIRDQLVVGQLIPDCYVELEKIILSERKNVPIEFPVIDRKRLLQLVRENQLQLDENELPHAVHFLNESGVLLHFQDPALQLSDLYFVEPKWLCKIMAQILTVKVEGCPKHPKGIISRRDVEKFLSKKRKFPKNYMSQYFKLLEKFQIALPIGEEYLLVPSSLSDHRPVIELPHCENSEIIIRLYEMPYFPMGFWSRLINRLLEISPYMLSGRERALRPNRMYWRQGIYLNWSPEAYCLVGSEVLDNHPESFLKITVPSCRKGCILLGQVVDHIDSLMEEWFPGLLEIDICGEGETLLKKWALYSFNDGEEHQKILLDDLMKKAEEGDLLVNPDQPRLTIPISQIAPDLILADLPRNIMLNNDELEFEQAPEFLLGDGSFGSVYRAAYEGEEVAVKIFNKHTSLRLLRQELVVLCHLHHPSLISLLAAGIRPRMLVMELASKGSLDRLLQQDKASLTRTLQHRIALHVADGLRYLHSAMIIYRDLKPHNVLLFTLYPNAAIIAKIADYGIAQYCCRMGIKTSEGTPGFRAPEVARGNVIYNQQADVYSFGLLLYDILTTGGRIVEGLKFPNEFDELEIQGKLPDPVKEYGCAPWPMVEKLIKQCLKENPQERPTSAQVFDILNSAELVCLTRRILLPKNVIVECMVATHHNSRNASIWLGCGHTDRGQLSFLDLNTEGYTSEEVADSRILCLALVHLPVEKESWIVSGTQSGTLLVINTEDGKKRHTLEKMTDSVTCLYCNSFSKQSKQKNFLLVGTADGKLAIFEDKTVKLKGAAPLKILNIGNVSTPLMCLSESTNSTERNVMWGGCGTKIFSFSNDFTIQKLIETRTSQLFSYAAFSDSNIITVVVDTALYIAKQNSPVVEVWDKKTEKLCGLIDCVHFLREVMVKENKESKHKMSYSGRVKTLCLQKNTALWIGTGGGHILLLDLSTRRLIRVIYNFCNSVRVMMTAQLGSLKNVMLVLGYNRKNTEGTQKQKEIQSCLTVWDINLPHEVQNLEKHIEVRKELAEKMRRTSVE

Compound	IC50 [nM]
COc1ccc2nc(Nc3cnn(C(C)(C)C(N)=O)c3)c3n[nH]cc3c2c1 [Example 164, 2-(4-((8-methoxy-2H-pyrazolo[3,4-c]quinolin-4-yl)amino)-1H-pyrazol-1-yl)-2-methylpropanamide]	100 to 1000
CS(=O)(=O)c1ccc2c(c1)nc(Nc1ccc(C(=O)N3CCOCC3)c(F)c1)c1[nH]ncc12 [Example 174, (2-fluoro-4-((7-(methylsulfonyl)-3H-pyrazolo[3,4-c]quinolin-4-yl)amino)phenyl)(morpholino)methanone]	100 to 1000
COc1cc(C(=O)N2CCOCC2)ccc1Nc1nc2cc(S(C)(=O)=O)ccc2c2cn[nH]c12 [Example 194, (3-methoxy-4-((7-(methylsulfonyl)-3H-pyrazolo[3,4-c]quinolin-4-yl)amino)phenyl)(morpholino)methanone]	100 to 1000
Cn1cccc(Nc2nc3ccc(S(C)(=O)=O)cc3c3cn[nH]c23)c1=O [Example 202, 1-methyl-3-((8-(methylsulfonyl)-3H-pyrazolo[3,4-c]quinolin-4-yl)amino)pyridin-2(1H)-one]	100 to 1000
COc1nn(C2CCN(C(C)(C)C)CC2)cc1Nc1nc2cccc(OC)c2c2cn[nH]c12 [Example 225, N-(1-(1-(tert-butyl)piperidin-4-yl)-3-methoxy-1H-pyrazol-4-yl)-9-methoxy-3H-pyrazolo[3,4-c]quinolin-4-amine]	10 to 100
CS(=O)(=O)c1ccc2nc(Nc3cc(S(C)(=O)=O)sc3Cl)c3[nH]ncc3c2c1 [Example 230, N-(2-chloro-5-(methylsulfonyl)thiophen-3-yl)-8-(methylsulfonyl)-3H-pyrazolo[3,4-c]quinolin-4-amine]	10 to 100
COc1cccc2nc(Nc3c(C)nn(C(C)C)c3C)c3[nH]ncc3c12 [Example 234, N-(1-isopropyl-3,5-dimethyl-1H-pyrazol-4-yl)-9-methoxy-3H-pyrazolo[3,4-c]quinolin-4-amine]	100 to 1000
COCCCn1ncc(Nc2nc3cccc(OC)c3c3cn[nH]c23)c1Cl [Example 235, N-(5-chloro-1-(3-methoxypropyl)-1H-pyrazol-4-yl)-9-methoxy-3H-pyrazolo[3,4-c]quinolin-4-amine]	10 to 100
COCCCn1ncc(Nc2nc3ccc(S(C)(=O)=O)cc3c3cn[nH]c23)c1Cl [Example 237, N-(5-chloro-1-(3-methoxypropyl)-1H-pyrazol-4-yl)-8-(methylsulfonyl)-3H-pyrazolo[3,4-c]quinolin-4-amine]	10 to 100
Cn1nc(C2CC2)cc1Nc1nc2ccc(S(C)(=O)=O)cc2c2cn[nH]c12 [Example 239, N-(3-cyclopropyl-1-methyl-1H-pyrazol-5-yl)-8-(methylsulfonyl)-3H-pyrazolo[3,4-c]quinolin-4-amine]	100 to 1000
COc1cc(N2CCOC2=O)ccc1Nc1nc2ccc(S(C)(=O)=O)cc2c2cn[nH]c12 [Example 240, 3-(3-methoxy-4-((8-(methylsulfonyl)-3H-pyrazolo[3,4-c]quinolin-4-yl)amino)phenyl)oxazolidin-2-one]	100 to 1000
COCCn1ncc(Nc2nc3cccc(OC)c3c3cn[nH]c23)c1Cl [Example 241, N-(5-chloro-1-(2-methoxyethyl)-1H-pyrazol-4-yl)-9-methoxy-3H-pyrazolo[3,4-c]quinolin-4-amine]	10 to 100
COCCn1ncc(Nc2nc3ccc(S(C)(=O)=O)cc3c3cn[nH]c23)c1Cl [Example 242, N-(5-chloro-1-(2-methoxyethyl)-1H-pyrazol-4-yl)-8-(methylsulfonyl)-3H-pyrazolo[3,4-c]quinolin-4-amine]	10 to 100
COCCn1ncc(Nc2nc3cc(S(C)(=O)=O)ccc3c3cn[nH]c23)c1Cl [Example 243, N-(5-chloro-1-(2-methoxyethyl)-1H-pyrazol-4-yl)-7-(methylsulfonyl)-3H-pyrazolo[3,4-c]quinolin-4-amine]	10 to 100
Cc1c(Nc2nc3cc(S(C)(=O)=O)ccc3c3cn[nH]c23)cnn1C(C)C [Example 244, N-(1-isopropyl-5-methyl-1H-pyrazol-4-yl)-7-(methylsulfonyl)-3H-pyrazolo[3,4-c]quinolin-4-amine]	10 to 100

Results, then the compound that gave them:

IC50 [nM]	Compound
< 10	COCCn1cc(Nc2nc3cccc(OC)c3c3c[nH]nc23)cn1 [Example 156, 9-methoxy-N-(1-(2-methoxyethyl)-1H-pyrazol-4-yl)-2H-pyrazolo[3,4-c]quinolin-4-amine]
< 10	COc1cccc2nc(Nc3cnn(C4CCN(C(C)=O)CC4)c3)c3[nH]ncc3c12 [Example 157, 1-(4-(4-((9-methoxy-3H-pyrazolo[3,4-c]quinolin-4-yl)amino)-1H-pyrazol-1-yl)piperidin-1-yl)ethan-1-one]
< 10	CS(=O)(=O)c1ccc2c(c1)nc(Nc1cnn(C3CCOCC3)c1)c1[nH]ncc12 [Example 160, 7-(methylsulfonyl)-N-(1-(tetrahydro-2H-pyran-4-yl)-1H-pyrazol-4-yl)-3H-pyrazolo[3,4-c]quinolin-4-amine]
10 to 100	CS(=O)(=O)c1ccc2c(c1)nc(Nc1cnn(C3CCOCC3)c1)c1[nH]ncc12 [Example 169, 7-(methylsulfonyl)-N-(1-(tetrahydro-2H-pyran-4-yl)-1H-pyrazol-4-yl)-3H-pyrazolo[3,4-c]quinolin-4-amine]
< 10	COc1cccc2nc(Nc3cnn(C(C)(C)C)c3)c3[nH]ncc3c12 [Example 181, N-(1-(tert-butyl)-1H-pyrazol-4-yl)-9-methoxy-3H-pyrazolo[3,4-c]quinolin-4-amine]
< 10	COc1cccc2nc(Nc3cnn(C4(C#N)CCCCC4)c3)c3[nH]ncc3c12 [Example 185, 1-(4-((9-methoxy-3H-pyrazolo[3,4-c]quinolin-4-yl)amino)-1H-pyrazol-1-yl)cyclohexanecarbonitrile]
10 to 100	COc1cc(C(=O)N2CCOCC2)ccc1Nc1nc2cccc(OC)c2c2cn[nH]c12 [Example 200, (3-methoxy-4-((9-methoxy-3H-pyrazolo[3,4-c]quinolin-4-yl)amino)phenyl)(morpholino)methanone]
10 to 100	COCCn1cc(Nc2nc3cccc(OC)c3c3cn[nH]c23)c(C)n1 [Example 205, 9-methoxy-N-(1-(2-methoxyethyl)-3-methyl-1H-pyrazol-4-yl)-3H-pyrazolo[3,4-c]quinolin-4-amine]
10 to 100	COc1cccc2nc(Nc3cn(C4CCOCC4)nc3C)c3[nH]ncc3c12 [Example 207, 9-methoxy-N-(3-methyl-1-(tetrahydro-2H-pyran-4-yl)-1H-pyrazol-4-yl)-3H-pyrazolo[3,4-c]quinolin-4-amine]
10 to 100	COCCn1cc(Nc2nc3ccc(S(C)(=O)=O)cc3c3cn[nH]c23)c(C)n1 [Example 209, N-(1-(2-methoxyethyl)-3-methyl-1H-pyrazol-4-yl)-8-(methylsulfonyl)-3H-pyrazolo[3,4-c]quinolin-4-amine]
10 to 100	COCCn1ncc(Nc2nc3ccc(S(C)(=O)=O)cc3c3cn[nH]c23)c1C [Example 210, N-(1-(2-methoxyethyl)-5-methyl-1H-pyrazol-4-yl)-8-(methylsulfonyl)-3H-pyrazolo[3,4-c]quinolin-4-amine]
< 10	Cc1nn(C(C)C)cc1Nc1nc2ccc(S(C)(=O)=O)cc2c2cn[nH]c12 [Example 213, N-(1-isopropyl-3-methyl-1H-pyrazol-4-yl)-8-(methylsulfonyl)-3H-pyrazolo[3,4-c]quinolin-4-amine]
< 10	Cc1c(Nc2nc3ccc(S(C)(=O)=O)cc3c3cn[nH]c23)cnn1C(C)C [Example 214, N-(1-isopropyl-5-methyl-1H-pyrazol-4-yl)-8-(methylsulfonyl)-3H-pyrazolo[3,4-c]quinolin-4-amine]
10 to 100	Cc1nn(C2CCOCC2)cc1Nc1nc2ccc(S(C)(=O)=O)cc2c2cn[nH]c12 [Example 216, N-(3-methyl-1-(tetrahydro-2H-pyran-4-yl)-1H-pyrazol-4-yl)-8-(methylsulfonyl)-3H-pyrazolo[3,4-c]quinolin-4-amine]
10 to 100	Cc1nn(C(C)C)cc1Nc1nc2ccc(S(C)(=O)=O)cc2c2cn[nH]c12 [Example 217, N-(1-isopropyl-3-methyl-1H-pyrazol-4-yl)-8-(methylsulfonyl)-3H-pyrazolo[3,4-c]quinolin-4-amine]
< 10	COc1cccc2nc(Nc3cnn(C(C)C)c3C)c3[nH]ncc3c12 [Example 219, N-(1-isopropyl-5-methyl-1H-pyrazol-4-yl)-9-methoxy-3H-pyrazolo[3,4-c]quinolin-4-amine]
< 10	COc1cccc2nc(Nc3cn(C(C)C)nc3C)c3[nH]ncc3c12 [Example 220, N-(1-isopropyl-3-methyl-1H-pyrazol-4-yl)-9-methoxy-3H-pyrazolo[3,4-c]quinolin-4-amine]
10 to 100	COc1cccc2nc(Nc3cn(C(C)C)nc3C)c3[nH]ncc3c12 [Example 222, N-(1-isopropyl-3-methyl-1H-pyrazol-4-yl)-9-methoxy-3H-pyrazolo[3,4-c]quinolin-4-amine]
